The values that follow come from ChEMBL document CHEMBL4118087, “Inhibitors of CD73 May Provide a Treatment for Cancer and Autoimmune Diseases” (ACS Med Chem Lett, 2017).

For orientation: IC50 means the concentration that inhibits the measured activity by half.

The target in the assay is 5'-nucleotidase (Homo sapiens, UniProt P21589, T376A). Briefly: Inhibition of human flag-tagged CD73 Thr376Ala mutant (1 to 552 residues) assessed as reduction in conversion of AMP to adenosine incubated for 10 mins followed by AMP addition measured after 30 mins by RapidFire mass spectrometric analysis.
5'-nucleotidase, sequence (P21589 27-549 T376A limits assumed): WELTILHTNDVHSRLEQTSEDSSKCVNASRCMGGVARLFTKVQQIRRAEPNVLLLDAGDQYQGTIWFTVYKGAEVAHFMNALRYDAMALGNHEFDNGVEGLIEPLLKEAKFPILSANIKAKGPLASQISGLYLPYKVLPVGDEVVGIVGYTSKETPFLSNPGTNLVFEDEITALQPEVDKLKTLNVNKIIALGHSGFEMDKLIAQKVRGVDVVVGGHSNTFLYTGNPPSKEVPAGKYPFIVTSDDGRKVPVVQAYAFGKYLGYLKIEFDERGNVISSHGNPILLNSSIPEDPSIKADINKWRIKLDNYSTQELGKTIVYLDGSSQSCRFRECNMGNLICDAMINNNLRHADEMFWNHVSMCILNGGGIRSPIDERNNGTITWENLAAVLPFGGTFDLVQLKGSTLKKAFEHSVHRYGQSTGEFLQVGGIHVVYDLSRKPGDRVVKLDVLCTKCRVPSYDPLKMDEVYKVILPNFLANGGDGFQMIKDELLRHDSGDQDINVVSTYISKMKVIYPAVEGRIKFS

As to `Cc1ccc(NC2=Nc3c(O)cc(Cl)cc3S(=O)(=O)N2)cc1`, the IC50 was 1 µM.
The same measure for `O=S1(=O)N=C(Nc2cc(F)c3[nH]ccc3c2)Nc2c(O)cc(Cl)c(Br)c21`: 0.0631 µM; for `CN(C)C(=O)Cc1cccc(NC2=Nc3c(O)cc(Cl)cc3S(=O)(=O)N2)c1`: 3.16 µM.
The figure for `O=S1(=O)NC(Nc2cccc3[nH]ccc23)=Nc2c(O)cc(Cl)cc21` is not above 0.316 µM.
The same measure for `O=S1(=O)NC(Nc2cccc(O)c2)=Nc2c(O)cc(F)cc21`: 0.1 µM; for `O=S1(=O)NC(Nc2cccc3[nH]ncc23)=Nc2c1cc(Cl)c(F)c2O`: 0.0158 µM.
